According to patent US6743795B1, “3-nitropyridine derivaives and the pharmaceutical compositions containing said derivatives” (Dong Wha Pharm. Ind. Co. Ltd., priority 1999, dated 2004):
Where two headings read alike, the source gives them in different places.

Experiments:
HBV polymerase = target: T1, HBV polymerase (Hepatitis B virus genotype A2 subtype adw2, UniProt P03159); test: In vitro reverse transcription activity of HBV polymerase (ELISA-type, DIG/biotin nucleotides); type: biochemical; conditions: for inhibition at 0.01 µg/mL / inhibition at 0.1 µg/mL / inhibition at 1 µg/mL: read-out: Inhibition activity on HBV-RT (%)
T1 construct: made in house; host or cells: E. coli
Description: <Experiment 1> Inhibitory Effect on the In Vitro Activities of HBV Polymerase in Reverse Transcription
The following in vitro experiment was performed to determine the effect of the compounds of formula 1 on the activity of HBV polymerase during reverse transcription.
The present inventors submitted application for a patent concerning HBV polymerase genetically expressed in and separated from E.coli, the process of its preparation, and the method to measure the enzyme activities (KR 94-3918, KR 96-33998). In the present experiments HBV polymerase was used which had been expressed in E. coli as stated above.
The method used in the present invention to measure in vitro reverse transcribing activities of HBV polymerase is as follows. Basic principles are the same as for ELISA. Nucleotides with biotin or digoxigenin group attached are included as substrates and anti-DIG antibodies attached to peroxidase enzyme recognize the polymerized substrates.
To the wells coated with streptavidin, 20 μl of HBV polymerase, 20 μl of reaction mixture (10 μM each of DIG-UTP and Biotin-UTP, 46 mM Tris-HCl, 266 mM KCl, 27.5 mM MgCl2, 9.2 mM DTT substrate/primer nybrid), and 20 μl of test compound (added to 1, 0.1, and 0.01 μg/ml) were added and allowed to react at 22° C. for 15 hrs. During this reaction, HBV polymerase catalyzes DNA synthesis and digoxigenin and biotin attached to nucleotides form bonds with streptavidin coated on the bottom of wells. When the reaction was done, each well was washed with 250 μl of cleaning buffer (pH 7.0) for 30 seconds, which was repeated five times to remove remaining impurities. 200 μl of anti-DIG-POD antibody was added to each well and allowed to react for 1 hr at 37° C., and the wells were washed with cleaning buffer to remove impurities. 200 μl each of ABTS™, a substrate of peroxidase, was then added and allowed to react at room temperature for 30 min. Absorbance was measured at 405 nm using ELISA reader.
The percentage of reduction in HBV polymerase activities for reverse transcription was calculated using the group without test compound as a control and the results are shown in Table 3.

HBV = test: Proliferation of HBV in HBV producing cell line HepG 2.2.15 (competitive PCR of culture supernatant); type: cell-based, Hepatitis B virus; conditions: HepG 2.2.15, one week; for inhibition at 0.1 µg/mL / inhibition at 1 µg/mL / inhibition at 0.01 µg/mL: Hepatitis B virus, HepG2.2.15, 168 h, read-out: Inhibitory effect on the HBV proliferation: Inhibition activity on HBV-RT (%)
Description: <Experiment 2> Inhibitory Effect on the Proliferation of HBV in HBV Producing Cell Line
The following experiment was performed to determine inhibitory effects of compounds of formula 1 on the proliferation of HBV producing cell line.
To test for antiviral effect, replication and proliferation of HBV were measured in HepG 2.2.15, a human liver cancer cell line.
The cell concentration was adjusted to 1×10^5 cells/ml and 1 ml was added to each well of a 24-well cell culture plate, which was then kept in a culture box for 3-4 days at 37° C. under 5% CO2 until cells grew sufficiently, changing culture medium everyday. When the cells matured sufficiently, the test compounds were added to the final concentrations of 0.01, 0.1, and 1 μg/ml. One week after the addition of test compounds, the culture solution was centrifuged at 5,000 rpm for 10 min. 25 μl of supernatant was transferred to a new tube and 5 μl of lysis solution [0.54N NaOH, 0.06% NP40] was added to each tube. After keeping the tube at 37° C. for 1 hr, 30 μl of neutralizing solution [0.09N HCl 0.1MTris-HCl, pH7.4] was added as a reaction solution for competitive polymerase chain reaction (PCR).
PCR was performed using genetic sequence of HBV core protein as a matrix. PCR reaction was carried out by adding 1 unit of Taq polymerase enzyme to 25 pmol of each primer, 250 μM dNTP, 5 μl of PCR reaction solution [0.54N NaOH, 0. 06% NP40, 0.09N HCl, 0.1M Tris-HCl, pH 7.4].
DNA polymerized by PCR was electrophoresed on Agarose gel and quantitatively analyzed using an image analyzer (Gel Doc 1000, Bio-Rad) in order to evaluate the effect of compounds of the present invention on the reduction of HBV proliferation.
3TC (lamivudine) was used as a positive control at the same concentrations as those of the test compounds. The percentage of reduction in HBV proliferation was calculated using the group without test compound as a control and the results are represented in Table 4.

[1] = target: T2, HIV reverse transcriptase (Human immunodeficiency virus type 1 group M subtype B, UniProt P03366); test: In vitro HIV reverse transcriptase activity (non-radioactive RT assay kit); type: biochemical
T2 construct: purchased Boehringer Mannheim
Description: <Experiment 3> Inhibitory Effect on the In Vitro HIV Enzyme Activities in Reverse Transcription
The following in vitro experiments were done to determine the effect of compounds of formula 1 on the reduction of HIV enzyme activities in reverse transcription.
Non-radioactive reverse transcriptase assay kit (Boehringer Mannheim) was used in the measurement of in vitro transcriptase activities. 20 μl (40 ng) of HIV transcriptase and 20 μl of reaction mixture containing matrix-primer hybrid poly(A)oligo(dT)15, DIG(digoxigenin)-dUTP, biotin-dUTP, and TTP were added to wells coated with streptavidin. Test compounds were also added at the final concentrations of 0.1 and 1 μg/ml and allowed to react at 37° C. for 1 hr. At this time, DNA is formed from RNA by the action of HIV reverse transcriptase, forming bonds with streptavidin coated on the bottom of wells because of digoxigenin and biotin moieties attached to nucleotides.
When the reaction was completed, each well was washed with 250 μl of cleaning buffer (pH7.0) for 30sec. five times to remove remaining impurities. 200 μl of anti-DIG-POD […] was added to each well, allowed to react at 37° C. for 1 hr and washed as above to remove impurities. 200 μl of ABTS™, a substrate for peroxidase, was added to each well and allowed to react at room temperature for 30 min. Absorbance at 405 nm was then read for each solution using ELISA reader and used for quantitative determination of inhibitory effect on the HIV transcriptase activities. The percentage of reduction in the activities of HIV reverse transcriptase was calculated using the group without test compound as control and the results are represented in Table 5.

HepG2 cells = test: Cytotoxicity test on HepG2 cells (MTT); type: cell-based
From the text: (§1) <Experiment 4> Cytotoxicity Test

[2] = Cytotoxicity test on HepG2 cells (MTT); type: cell-based; conditions: human; HepG2 cells, MTT; read-out: Cytotoxicity on HepG2, IC50 (50% Inhibitory Concentration)
From the text: as §1

T1 sequence (P03159 whole entry): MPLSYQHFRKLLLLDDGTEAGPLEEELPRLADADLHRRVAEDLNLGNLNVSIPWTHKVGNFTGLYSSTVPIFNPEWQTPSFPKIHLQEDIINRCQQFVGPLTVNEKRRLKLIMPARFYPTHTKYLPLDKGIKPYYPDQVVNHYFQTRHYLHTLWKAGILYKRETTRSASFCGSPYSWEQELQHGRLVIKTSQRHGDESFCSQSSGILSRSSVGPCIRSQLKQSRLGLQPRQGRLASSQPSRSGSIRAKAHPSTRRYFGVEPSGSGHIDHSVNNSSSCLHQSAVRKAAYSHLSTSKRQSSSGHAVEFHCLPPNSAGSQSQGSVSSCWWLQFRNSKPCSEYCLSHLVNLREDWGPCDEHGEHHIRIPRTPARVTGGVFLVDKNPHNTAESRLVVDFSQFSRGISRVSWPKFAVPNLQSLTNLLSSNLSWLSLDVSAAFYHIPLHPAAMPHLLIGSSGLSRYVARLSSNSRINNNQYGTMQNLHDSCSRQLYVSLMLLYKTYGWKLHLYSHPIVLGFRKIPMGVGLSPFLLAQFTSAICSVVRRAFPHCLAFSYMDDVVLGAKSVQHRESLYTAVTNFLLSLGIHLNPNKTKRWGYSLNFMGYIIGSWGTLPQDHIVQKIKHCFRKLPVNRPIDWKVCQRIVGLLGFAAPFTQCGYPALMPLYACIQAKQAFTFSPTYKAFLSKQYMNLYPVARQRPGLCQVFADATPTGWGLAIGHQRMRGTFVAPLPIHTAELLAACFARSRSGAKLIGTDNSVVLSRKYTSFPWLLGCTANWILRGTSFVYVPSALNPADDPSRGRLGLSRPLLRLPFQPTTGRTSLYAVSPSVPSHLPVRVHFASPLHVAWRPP

Molecule	Inhibition activity on HBV-RT (%) (HBV polymerase; 0.01 μg/ml test compound)	Inhibition activity on HBV-RT (%) (HBV polymerase; 0.1 μg/ml test compound)	Inhibition activity on HBV-RT (%) (HBV polymerase; 1 μg/ml test compound)	Inhibitory effect on the HBV proliferation: Inhibition activity on HBV-RT (%) (HBV; 0.01 μg/ml)	Inhibitory effect on the HBV proliferation: Inhibition activity on HBV-RT (%) (HBV; 0.1 μg/ml)	Inhibitory effect on the HBV proliferation: Inhibition activity on HBV-RT (%) (HBV; 1 μg/ml)	Inhibitory effect on the activities of HIV reverse transcriptase: Inhibition activity on HIV-RT (%) ([1]; 0.1 μg/ml test compound)	Inhibitory effect on the activities of HIV reverse transcriptase: Inhibition activity on HIV-RT (%) ([1]; 1 μg/ml test compound)	Cytotoxicity on HepG2, IC50 (50% Inhibitory Concentration) (HepG2 cells) [µg/mL]	Cytotoxicity on HepG2, MCD (Minimal Cytotoxic Concentration) (HepG2 cells) [µg/mL]	inhibition at 0.01 µg/mL (HBV polymerase; 0.01 μg/ml test compound) [%]	inhibition at 0.1 µg/mL (HBV polymerase; 0.1 μg/ml test compound) [%]	inhibition at 1 µg/mL (HBV polymerase; 1 μg/ml test compound) [%]	inhibition at 0.1 µg/mL (HBV; 0.1 μg/ml) [%]	inhibition at 1 µg/mL (HBV; 1 μg/ml) [%]	IC50 [2] [µg/mL]	Cytotoxicity on HepG2, MCD (Minimal Cytotoxic Concentration) (HepG2 cells; HepG2 cells, MTT) [µg/mL]	Cytotoxicity on HepG2, IC50 (50% Inhibitory Concentration) (HepG2 cells; HepG2 cells, MTT) [µg/mL]	inhibition at 0.01 µg/mL (HBV; 0.01 μg/ml) [%]	melting point
6-ethyl-(2-hydroxyethyl)amino-2-(1H-5-indazolylamino)-3-nitropyridine [Example 11]	35	60	85	20	45	83	46	67	>100	100										
COc1ccc([N+](=O)[O-])c(Nc2ccc3cn[nH]c3c2)n1 [Example 2, 2-(1H-6-indazolylamino)-6-methoxy-3-nitropyridine]											12	50	76	40	72	> 100	100			
CC(C)Nc1ccc([N+](=O)[O-])c(Nc2ccc3cn[nH]c3c2)n1 [Example 6, 2-(1H-6-indazolylamino)-6-isopropyl amino-3-nitropyridine]	49	76	91	33	72	90	50	69									100	>100		
C[C@@H](CCO)Nc1ccc([N+](=O)[O-])c(Nc2ccc3[nH]ncc3c2)n1 [Example 12, 6-[(1S)-1-(hydroxyethyl)ethylamino]-2-(1H-5-indazolylamino)-3-nitropyridine]							40	64			38	56	90	48	85				29	> 270 °C
O=[N+]([O-])c1ccc(NC(CO)CO)nc1Nc1ccc2[nH]ncc2c1 [Example 14, 6-[bis(hydroxymethyl)methylamino)-2-(1H-5-indazolylamino)-3-nitropyridine]							44	59			30	49	85	41	80				22	> 270 °C
O=[N+]([O-])c1ccc(NCc2cccnc2)nc1Nc1ccc2cn[nH]c2c1 [Example 20, 2-(1H-6-indazolylamino)-3-nitro-6-(3-pyridyl)methylaminopyridine]							53	84			21	40	66							> 270 °C
O=[N+]([O-])c1ccc(N2CCNCC2)nc1Nc1ccc2[nH]ncc2c1 [Example 23, 2-(1H-5-indazolylamino)-3-nitro-6-(1-piperazinyl)pyridine]											51	66	96	55	92				35	270 °C (dec.)
O=[N+]([O-])c1ccc(NN2CCOCC2)nc1Nc1ccc2[nH]ncc2c1 [Example 30, 2-(1H-5-indazolylamino)-6-(4-morpholinyl)amino-3-nitropyridine]											32	49	71							> 270 °C
